Assay results from the supplement of paper PMC12137928.
Where a name gives a salt, the structure may show the parent alone.

Key:
HCT116 [1] = conditions: 72 h
Outline: (§1)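 HCT116 cells were seeded at 250 per well in 1536-well plates and left 5 h to attach. CellTiter-Glo luminescence was scaled to vehicle (0%) and positive control (-100%), then pattern-corrected. IC50 and maximal efficacy came from four-parameter Hill fits.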

HCT116 [2] = test: efficacy (maximum % inhibition of viability vs DMSO); higher = more cytotoxic; conditions: 72 h
Outline: as §1

SMILES | IC50 cell viability (HCT116 [1]; ICRF193 0 nM) | IC50 cell viability (HCT116 [1]; ICRF193 200 nM) | efficacy (HCT116 [2]; ICRF193 0 nM) | efficacy (HCT116 [2]; ICRF193 200 nM)
NS(=O)(=O)c1ccc(-n2nc(C(F)(F)F)cc2-c2ccc(F)cc2)cc1 [Mavacoxib] | 29.1 µM | 20.6 µM | 56.9% | 51.5%
Oc1ccc(CCNCCCCCCNCCc2ccccc2)cc1O [Dopexamine] | > 45.8 µM | 18.3 µM | – | 47.3%
CC(=O)OCC1=C(C(=O)O)N2C(=O)[C@@H](NC(=O)[C@H](N)c3ccccc3)[C@H]2SC1 [Cephaloglycin] | > 45.8 µM | 6.51 µM | – | 61.5%
Oc1c(Cl)cc(Cl)c(Cl)c1Cc1c(O)c(Cl)cc(Cl)c1Cl [Hexachlorophene] | 2.59 µM | 6.51 µM | 82.5% | 45.6%
CC[C@]1(O)C[C@H]2CN(CCc3c([nH]c4ccccc34)[C@@](C(=O)OC)(c3cc4c(cc3OC)N(C=O)[C@H]3[C@@](O)(C(=O)OC)[C@H](OC(C)=O)[C@]5(CC)C=CCN6CC[C@]43[C@@H]65)C2)C1 [Vincristine] | 0.164 µM | 0.183 µM | 70.2% | 63.5%
O=C1NCCN1CCN1CCC(c2cn(-c3ccc(F)cc3)c3ccc(Cl)cc23)CC1 [Sertindole] | 16.4 µM | 23.1 µM | 105% | 117%
COC(=O)C1=C(C)NC(C)=C(C(=O)OC(C)(C)CN(C)CCC(c2ccccc2)c2ccccc2)C1c1cccc([N+](=O)[O-])c1 (stereo not drawn) [Lercanidipine hydrochloride] | 20.6 µM | 16.4 µM | 102% | 89.3%
Cc1cccc(C)c1OCC(=O)N[C@@H](Cc1ccccc1)[C@@H](O)C[C@H](Cc1ccccc1)NC(=O)[C@H](C(C)C)N1CCCNC1=O [Lopinavir] | 18.3 µM | 29.1 µM | 50.2% | 73.7%
C=C(C)[C@H]1Cc2c(ccc3c2O[C@@H]2COc4cc(OC)c(OC)cc4[C@@H]2C3=O)O1 [Rotenone] | 0.326 µM | 0.517 µM | 69.7% | 89.1%
C[C@H]1c2cccc(O)c2C(=O)C2=C(O)[C@]3(O)C(=O)C(C(N)=O)=C(O)[C@@H](N(C)C)[C@@H]3[C@@H](O)[C@@H]21 [Doxycycline] | 16.4 µM | 23.1 µM | 41.6% | 62.7%
COc1ccc(Cc2nccc3cc(OC)c(OC)cc23)cc1OC [Papaverine hydrochloride] | > 45.8 µM | 3.66 µM | – | 41.6%
CC[C@H]1OC(=O)[C@H](C)[C@@H](O[C@H]2C[C@@](C)(OC)[C@@H](O)[C@H](C)O2)[C@H](C)[C@@H](O[C@@H]2O[C@H](C)C[C@H](N(C)C)[C@H]2O)[C@](C)(O)C[C@@H](C)CN(C)[C@H](C)[C@@H](O)[C@]1(C)O [Azithromycin] | > 45.8 µM | 20.6 µM | – | 68.7%
CCC(C)C1O[C@]2(C=C[C@@H]1C)C[C@@H]1CC(C/C=C(\C)[C@@H](OC3C[C@H](OC)[C@@H](OC4C[C@H](OC)[C@@H](O)[C@H](C)O4)[C@H](C)O3)[C@@H](C)/C=C/C=C3\COC4[C@H](O)C(C)=CC(C(=O)O1)[C@]34O)O2 (stereo partly drawn) [Avermectin B1a] | 8.2 µM | > 45.8 µM | 92.3% | –
CN(C)c1ccc2nc3ccc(=[N+](C)C)cc-3sc2c1 [Methylene blue] | 3.66 µM | 2.31 µM | 109% | 91.6%
CC1=NN(c2ccc(C)c(C)c2)C(=O)/C1=N\Nc1cccc(-c2cccc(C(=O)O)c2)c1O [Eltrombopag olamine] | 6.51 µM | > 45.8 µM | 41.9% | –
Cc1cc(O)c2ccccc2c1O [Menadiol] | > 45.8 µM | 20.6 µM | – | 41.5%
COc1c(-c2ccc3cc(NS(C)(=O)=O)ccc3c2)cc(-n2ccc(=O)[nH]c2=O)cc1C(C)(C)C [ABT-333] | 20.6 µM | 25.9 µM | 94.6% | 102%
CCCSc1ccc2[nH]c(NC(=O)OC)nc2c1 [Albendazole] | 10.3 µM | > 45.8 µM | 53% | –
CN(C)[C@@H]1C(O)=C(C(N)=O)C(=O)[C@@]2(O)C(O)=C3C(=O)c4c(O)ccc(Cl)c4[C@@H](O)[C@H]3C[C@@H]12 [Demeclocycline hydrochloride] | > 45.8 µM | 16.4 µM | – | 40%
CC(C)(C)c1ccc(CN2CCN(C(c3ccccc3)c3ccc(Cl)cc3)CC2)cc1 (stereo not drawn) [Buclizine HCl] | 20.6 µM | 20.6 µM | 42.9% | 59%
CC(CN(C)C)CN1c2ccccc2Sc2ccc(C(F)(F)F)cc21 (stereo not drawn) [Trifluomeprazine 2-butenedioate] | 16.4 µM | 18.3 µM | 40.2% | 49.5%
O=C(Nc1ccc([N+](=O)[O-])cc1)Nc1ccc([N+](=O)[O-])cc1 [4,4'-Dinitrodiphenylurea] | > 45.8 µM | 29.1 µM | – | 55.9%
C/C(O)=C(\C#N)C(=O)Nc1ccc(C(F)(F)F)cc1 [Teriflunomide] | 13 µM | 11.6 µM | 51.8% | 46.2%
Nc1nc(Cl)nc2c1ncn2[C@@H]1O[C@H](CO)[C@@H](O)[C@@H]1F [Clofarabine] | 0.146 µM | 0.231 µM | 45.9% | 65.2%
CN1CCN(CCCN2c3ccccc3Sc3ccc(Cl)cc32)CC1 [Prochlorperazine dimaleate] | 25.9 µM | 20.6 µM | 89.6% | 81.1%
O=C1CCc2ccc(OCCCCN3CCN(c4cccc(Cl)c4Cl)CC3)cc2N1 [Aripiprazole] | 11.6 µM | 9.2 µM | 52.1% | 59.1%

SMILES | IC50 cell viability (HCT116 [1]; ICRF193 0 nM) | IC50 cell viability (HCT116 [1]; ICRF193 200 nM) | efficacy (HCT116 [2]; ICRF193 0 nM) | efficacy (HCT116 [2]; ICRF193 200 nM)
COc1cc2c(cc1O)CCN[C@]21CS[C@@H]2c3c(OC(C)=O)c(C)c4c(c3[C@H](COC1=O)N1[C@@H]2[C@H]2c3c(cc(C)c(OC)c3O)C[C@@H]([C@@H]1O)N2C)OCO4 [Trabectedin] | 0.0119 µM | 0.00473 µM | 57.2% | 74.4%
[O-][n+]1cccc(/C(Cl)=N/OC[C@H](O)CN2CCCCC2)c1 [Arimoclomol] | > 45.8 µM | 0.651 µM | – | 65.4%
OCc1cc(C(O)CNCCCCCCOCCCCc2ccccc2)ccc1O (stereo not drawn) [Salmeterol xinafoate] | 23.1 µM | 23.1 µM | 108% | 110%
CNCCC(Oc1ccc(C(F)(F)F)cc1)c1ccccc1 (racemic) [(+/-) -Fluoxetine] | 29.1 µM | 18.3 µM | 106% | 102%
COc1cc(C(C)=O)ccc1OCCCN1CCC(c2noc3cc(F)ccc23)CC1 [Iloperidone] | > 45.8 µM | 23.1 µM | – | 49.6%
CC[C@H]1CN2CCc3cc(OC)c(OC)cc3[C@@H]2C[C@@H]1C[C@H]1NCCc2cc(OC)c(OC)cc21 [EMETINE DIHYDROCHLORIDE] | 0.146 µM | 0.13 µM | 70.8% | 76.6%
COc1ccc2c(c1)N(C[C@H](C)CN(C)C)c1ccccc1S2 [Methotrimeprazine maleat salt] | > 45.8 µM | 23.1 µM | – | 50.8%
Cc1cccc(CN2CCN(C(c3ccccc3)c3ccc(Cl)cc3)CC2)c1 (stereo not drawn) [Meclizine hydrochloride] | > 45.8 µM | 29.1 µM | – | 49.1%
Cc1ccc(Nc2nccc(N(C)c3ccc4c(C)n(C)nc4c3)n2)cc1S(N)(=O)=O [Pazopanib] | 18.3 µM | > 45.8 µM | 56.3% | –
Cc1ccc(C(=O)OCc2ccc([C@@H](CN)C(=O)Nc3ccc4cnccc4c3)cc2)c(C)c1 [Netarsudil] | 14.2 µM | 8.96 µM | 104% | 94.1%
Nc1nc2ccc(OC(F)(F)F)cc2s1 [Riluzole] | > 45.8 µM | 23.1 µM | – | 46.2%
O=C1CCc2cc(OCCCCc3nnnn3C3CCCCC3)ccc2N1 [Cilostazol] | > 45.8 µM | 23.1 µM | – | 46%
O=C(Oc1cccc2cccnc12)c1ccccc1 [Benzoxiquine] | > 45.8 µM | 29.1 µM | – | 70.8%
CC(C)(C)CC(=O)OCC(=O)[C@@]1(O)CC[C@H]2[C@@H]3CCC4=CC(=O)C=C[C@]4(C)[C@H]3[C@@H](O)C[C@@]21C [Prednisolone tebutate] | > 45.8 µM | 29.1 µM | – | 41.9%
N[C@@H](CCC(=O)N[C@@H](CS)C(=O)NCC(=O)O)C(=O)O [Glutathione] | > 45.8 µM | 3.18 µM | – | 79.8%
C/C=C(/C(=C/C)c1ccc(O)cc1)c1ccc(O)cc1 [Dienestrol] | 29.1 µM | > 45.8 µM | 74.2% | –
CC(C)OC(=O)Nc1ccc2[nH]c(-c3cscn3)nc2c1 [Cambendazole] | 13 µM | 23.1 µM | 63% | 97.2%
COC(=O)Nc1nc2cc([S+]([O-])c3ccccc3)ccc2[nH]1 (stereo not drawn) [Oxfendazole] | 14.6 µM | 2.06 µM | 44.2% | 49.7%
Oc1cc(Cl)ccc1Oc1ccc(Cl)cc1Cl [Triclosan] | 16.4 µM | 18.3 µM | 92.5% | 95.2%
C=C(NC(=O)C(=C)NC(=O)c1csc(C2=N[C@@H]3c4csc(n4)[C@H]4NC(=O)c5csc(n5)[C@H]([C@](C)(O)[C@@H](C)O)NC(=O)[C@H]5CSC(=N5)/C(=C/C)NC(=O)[C@H]([C@@H](C)O)NC(=O)c5csc(n5)[C@]3(CC2)NC(=O)[C@H](C)NC(=O)C(=C)NC(=O)[C@H](C)NC(=O)[C@H]([C@@H](C)CC)N[C@@H]2C=Cc3c([C@H](C)O)cc(nc3[C@H]2O)C(=O)O[C@@H]4C)n1)C(N)=O [Thiostrepton] | > 45.8 µM | 5.17 µM | – | 58.6%
CN1C[C@H](C(=O)N[C@]2(C)O[C@@]3(O)[C@@H]4CCCN4C(=O)[C@H](Cc4ccccc4)N3C2=O)C=C2c3cccc4[nH]cc(c34)C[C@H]21 [Ergotamine tartrate] | > 45.8 µM | 18.3 µM | – | 70.8%
[O-][n+]1ccccc1[S-].[O-][n+]1ccccc1[S-].[Zn+2] [Zinc pyrithione] | 4.61 µM | 2.06 µM | 107% | 102%
CCN(CC)CCNC(=O)c1c(C)[nH]c(/C=C2\C(=O)Nc3ccc(F)cc32)c1C [Sunitinib malate] | 18.3 µM | 16.4 µM | 108% | 111%
Cc1cc(N)c2ccccc2[n+]1CCCCCCCCCC[n+]1c(C)cc(N)c2ccccc21 [Dequalinium dichloride] | > 45.8 µM | 2.98 µM | – | 55.3%
OC[C@H]1O[C@@H](n2cnc3c(S)ncnc32)[C@H](O)[C@@H]1O [Thioinosine] | 3.26 µM | 3.66 µM | 95.1% | 93.2%
CC[C@H](Nc1ncnc2[nH]cnc12)c1nc2cccc(F)c2c(=O)n1-c1ccccc1 [Idelalisib] | > 45.8 µM | 29.1 µM | – | 42.6%
